According to the NIST ThermoML archive (doi:10.1016/j.jct.2010.09.008):
± gives the expanded uncertainty stated by the source.

Legend:
[1] = relative permittivity at zero frequency (dimensionless); conditions: 101.33 kPa, Liquid, AC method
[2] = 101.33 kPa, Liquid, Vibrating tube method
[3] = xn = mol fraction of the nth substance listed; conditions: 101.3 kPa, Liquid, Vibrating tube method
[4] = relative permittivity at zero frequency (dimensionless); xn = mol fraction of the nth substance listed; conditions: 101.3 kPa, Liquid, AC Method

COCCOCCOCCOC [2,5,8,11-tetraoxadodecane]
Conditions | mass density, 288.15 K [kg/m3] | mass density, 298.15 K [kg/m3] | mass density, 308.15 K [kg/m3] | relative permittivity at zero frequency, 288.15 K | relative permittivity at zero frequency, 298.15 K | relative permittivity at zero frequency, 308.15 K
[1] | – | – | – | 7.89 ± 0.16 | 7.63 ± 0.15 | 7.38 ± 0.15
[2] | 990.08 ± 0.29 | 980.58 ± 0.29 | 971.07 ± 0.29 | – | – | –

COCCOC [1,2-dimethoxyethane]
Conditions | mass density, 288.15 K [kg/m3] | mass density, 298.15 K [kg/m3] | mass density, 308.15 K [kg/m3] | relative permittivity at zero frequency, 288.15 K | relative permittivity at zero frequency, 298.15 K | relative permittivity at zero frequency, 308.15 K
[1] | – | – | – | 7.41 ± 0.15 | 7.07 ± 0.14 | 6.75 ± 0.14
[2] | 872.05 ± 0.22 | 861.14 ± 0.22 | 850.06 ± 0.22 | – | – | –

COCCOCCOC [2,5,8-trioxanonane] + CCCCCCC
Conditions | mass density [kg/m3] | relative permittivity at zero frequency
[3], 288.15 K, x2 = 0.0482 | 935.46 ± 0.23 | –
[3], 288.15 K, x2 = 0.0986 | 921.11 ± 0.24 | –
[3], 288.15 K, x2 = 0.1969 | 893.54 ± 0.24 | –
[3], 288.15 K, x2 = 0.3042 | 864.14 ± 0.25 | –
[3], 288.15 K, x2 = 0.4054 | 836.87 ± 0.26 | –
[3], 288.15 K, x2 = 0.5047 | 810.62 ± 0.27 | –
[3], 288.15 K, x2 = 0.6049 | 784.64 ± 0.27 | –
[3], 288.15 K, x2 = 0.6982 | 760.9 ± 0.28 | –
[3], 288.15 K, x2 = 0.788 | 738.48 ± 0.29 | –
[3], 288.15 K, x2 = 0.8899 | 713.78 ± 0.3 | –
[3], 288.15 K, x2 = 0.9452 | 700.73 ± 0.3 | –
[3], 298.15 K, x2 = 0.0484 | 925.56 ± 0.23 | –
[3], 298.15 K, x2 = 0.1001 | 910.8 ± 0.24 | –
[3], 298.15 K, x2 = 0.1957 | 884.11 ± 0.24 | –
[3], 298.15 K, x2 = 0.2887 | 858.66 ± 0.25 | –
[3], 298.15 K, x2 = 0.4049 | 827.49 ± 0.26 | –
[3], 298.15 K, x2 = 0.4975 | 803.13 ± 0.27 | –
[3], 298.15 K, x2 = 0.5939 | 778.25 ± 0.27 | –
[3], 298.15 K, x2 = 0.6925 | 753.3 ± 0.28 | –
[3], 298.15 K, x2 = 0.7931 | 728.38 ± 0.29 | –
[3], 298.15 K, x2 = 0.8988 | 703 ± 0.3 | –
[3], 298.15 K, x2 = 0.9481 | 691.49 ± 0.3 | –
[3], 308.15 K, x2 = 0.0482 | 915.56 ± 0.23 | –
[3], 308.15 K, x2 = 0.098 | 901.53 ± 0.24 | –
[3], 308.15 K, x2 = 0.1961 | 874.29 ± 0.24 | –
[3], 308.15 K, x2 = 0.3036 | 845.06 ± 0.25 | –
[3], 308.15 K, x2 = 0.3981 | 819.81 ± 0.26 | –
[3], 308.15 K, x2 = 0.4994 | 793.28 ± 0.27 | –
[3], 308.15 K, x2 = 0.599 | 767.73 ± 0.28 | –
[3], 308.15 K, x2 = 0.6963 | 743.26 ± 0.28 | –
[3], 308.15 K, x2 = 0.7844 | 721.56 ± 0.29 | –
[3], 308.15 K, x2 = 0.8841 | 697.7 ± 0.3 | –
[3], 308.15 K, x2 = 0.9372 | 685.34 ± 0.3 | –
[3], 308.15 K, x2 = 0.9738 | 676.94 ± 0.31 | –
[4], 288.15 K, x2 = 0.0492 | – | 7.25 ± 0.15
[4], 288.15 K, x2 = 0.0982 | – | 6.84 ± 0.14
[4], 288.15 K, x2 = 0.1991 | – | 6.04 ± 0.12
[4], 288.15 K, x2 = 0.3006 | – | 5.3 ± 0.11
[4], 288.15 K, x2 = 0.398 | – | 4.65 ± 0.09
[4], 288.15 K, x2 = 0.4977 | – | 4.05 ± 0.08
[4], 288.15 K, x2 = 0.5854 | – | 3.58 ± 0.07
[4], 288.15 K, x2 = 0.7026 | – | 3.02 ± 0.06
[4], 288.15 K, x2 = 0.801 | – | 2.61 ± 0.05
[4], 288.15 K, x2 = 0.8927 | – | 2.28 ± 0.05
[4], 288.15 K, x2 = 0.9408 | – | 2.12 ± 0.04
[4], 298.15 K, x2 = 0.0494 | – | 6.98 ± 0.14
[4], 298.15 K, x2 = 0.0988 | – | 6.59 ± 0.13
[4], 298.15 K, x2 = 0.1956 | – | 5.85 ± 0.12
[4], 298.15 K, x2 = 0.303 | – | 5.11 ± 0.1
[4], 298.15 K, x2 = 0.3959 | – | 4.52 ± 0.09
[4], 298.15 K, x2 = 0.4948 | – | 3.96 ± 0.08
[4], 298.15 K, x2 = 0.6028 | – | 3.4 ± 0.07
[4], 298.15 K, x2 = 0.7018 | – | 2.95 ± 0.06
[4], 298.15 K, x2 = 0.7937 | – | 2.59 ± 0.05
[4], 298.15 K, x2 = 0.891 | – | 2.25 ± 0.05
[4], 298.15 K, x2 = 0.9419 | – | 2.09 ± 0.04
[4], 308.15 K, x2 = 0.0494 | – | 6.73 ± 0.13
[4], 308.15 K, x2 = 0.0981 | – | 6.35 ± 0.13
[4], 308.15 K, x2 = 0.1993 | – | 5.62 ± 0.11
[4], 308.15 K, x2 = 0.3025 | – | 4.94 ± 0.1
[4], 308.15 K, x2 = 0.3951 | – | 4.39 ± 0.09
[4], 308.15 K, x2 = 0.4936 | – | 3.86 ± 0.08
[4], 308.15 K, x2 = 0.5951 | – | 3.36 ± 0.07
[4], 308.15 K, x2 = 0.7021 | – | 2.89 ± 0.06
[4], 308.15 K, x2 = 0.7993 | – | 2.53 ± 0.05
[4], 308.15 K, x2 = 0.8953 | – | 2.21 ± 0.04
[4], 308.15 K, x2 = 0.9472 | – | 2.06 ± 0.04

COCCOC [1,2-dimethoxyethane] + CCCCCCC
Conditions | mass density [kg/m3] | relative permittivity at zero frequency
[3], 288.15 K, x2 = 0.0495 | 857.82 ± 0.23 | –
[3], 288.15 K, x2 = 0.0995 | 844.28 ± 0.23 | –
[3], 288.15 K, x2 = 0.2045 | 818.14 ± 0.23 | –
[3], 288.15 K, x2 = 0.2979 | 797.21 ± 0.24 | –
[3], 288.15 K, x2 = 0.403 | 775.91 ± 0.25 | –
[3], 288.15 K, x2 = 0.5042 | 757.33 ± 0.25 | –
[3], 288.15 K, x2 = 0.5998 | 741.27 ± 0.26 | –
[3], 288.15 K, x2 = 0.7021 | 725.61 ± 0.27 | –
[3], 288.15 K, x2 = 0.8053 | 711.33 ± 0.28 | –
[3], 288.15 K, x2 = 0.8998 | 699.44 ± 0.29 | –
[3], 288.15 K, x2 = 0.9508 | 693.43 ± 0.3 | –
[3], 298.15 K, x2 = 0.0503 | 846.65 ± 0.23 | –
[3], 298.15 K, x2 = 0.0974 | 834.02 ± 0.23 | –
[3], 298.15 K, x2 = 0.2008 | 808.4 ± 0.23 | –
[3], 298.15 K, x2 = 0.2994 | 786.5 ± 0.24 | –
[3], 298.15 K, x2 = 0.401 | 766.2 ± 0.25 | –
[3], 298.15 K, x2 = 0.5026 | 747.97 ± 0.25 | –
[3], 298.15 K, x2 = 0.5967 | 732.41 ± 0.26 | –
[3], 298.15 K, x2 = 0.6994 | 716.96 ± 0.27 | –
[3], 298.15 K, x2 = 0.8019 | 702.94 ± 0.28 | –
[3], 298.15 K, x2 = 0.9009 | 690.67 ± 0.29 | –
[3], 298.15 K, x2 = 0.9509 | 684.9 ± 0.3 | –
[3], 308.15 K, x2 = 0.0496 | 836.12 ± 0.23 | –
[3], 308.15 K, x2 = 0.0998 | 822.77 ± 0.23 | –
[3], 308.15 K, x2 = 0.2009 | 798.1 ± 0.24 | –
[3], 308.15 K, x2 = 0.3035 | 775.66 ± 0.24 | –
[3], 308.15 K, x2 = 0.4011 | 756.35 ± 0.25 | –
[3], 308.15 K, x2 = 0.5021 | 738.24 ± 0.26 | –
[3], 308.15 K, x2 = 0.6 | 722.36 ± 0.26 | –
[3], 308.15 K, x2 = 0.7018 | 707.33 ± 0.27 | –
[3], 308.15 K, x2 = 0.8036 | 693.71 ± 0.28 | –
[3], 308.15 K, x2 = 0.9014 | 681.82 ± 0.29 | –
[3], 308.15 K, x2 = 0.9519 | 676.15 ± 0.3 | –
[4], 288.15 K, x2 = 0.1012 | – | 6.32 ± 0.13
[4], 288.15 K, x2 = 0.2002 | – | 5.43 ± 0.11
[4], 288.15 K, x2 = 0.3003 | – | 4.69 ± 0.09
[4], 288.15 K, x2 = 0.3997 | – | 4.07 ± 0.08
[4], 288.15 K, x2 = 0.5024 | – | 3.52 ± 0.07
[4], 288.15 K, x2 = 0.6016 | – | 3.07 ± 0.06
[4], 288.15 K, x2 = 0.7002 | – | 2.72 ± 0.05
[4], 288.15 K, x2 = 0.7979 | – | 2.42 ± 0.05
[4], 288.15 K, x2 = 0.9022 | – | 2.15 ± 0.04
[4], 288.15 K, x2 = 0.9511 | – | 2.04 ± 0.04
[4], 298.15 K, x2 = 0.1013 | – | 6.04 ± 0.12
[4], 298.15 K, x2 = 0.2013 | – | 5.2 ± 0.1
[4], 298.15 K, x2 = 0.3011 | – | 4.5 ± 0.09
[4], 298.15 K, x2 = 0.3992 | – | 3.92 ± 0.08
[4], 298.15 K, x2 = 0.503 | – | 3.41 ± 0.07
[4], 298.15 K, x2 = 0.6035 | – | 3 ± 0.06
[4], 298.15 K, x2 = 0.7028 | – | 2.67 ± 0.05
[4], 298.15 K, x2 = 0.7982 | – | 2.38 ± 0.05
[4], 298.15 K, x2 = 0.902 | – | 2.13 ± 0.04
[4], 298.15 K, x2 = 0.9497 | – | 2.03 ± 0.04
[4], 308.15 K, x2 = 0.0493 | – | 6.26 ± 0.13
[4], 308.15 K, x2 = 0.1001 | – | 5.79 ± 0.12
[4], 308.15 K, x2 = 0.2005 | – | 4.99 ± 0.1
[4], 308.15 K, x2 = 0.3016 | – | 4.34 ± 0.09
[4], 308.15 K, x2 = 0.399 | – | 3.8 ± 0.08
[4], 308.15 K, x2 = 0.5009 | – | 3.32 ± 0.07
[4], 308.15 K, x2 = 0.603 | – | 2.93 ± 0.06
[4], 308.15 K, x2 = 0.7028 | – | 2.6 ± 0.05
[4], 308.15 K, x2 = 0.802 | – | 2.33 ± 0.05
[4], 308.15 K, x2 = 0.8974 | – | 2.11 ± 0.04
[4], 308.15 K, x2 = 0.9505 | – | 2.01 ± 0.04
